The values that follow come from patent US8466111B2, “Cyclopenta{G}quinazoline derivatives for the treatment of rheumatoid arthritis or acute myeloid leukaemia” (BTG International Limited, priority 2008, dated 2013).

A word on the IC50: it is the concentration at which inhibition is half-maximal.

Read-outs that look alike come from different tables or passages of the source.

One test deals with CHO/WT cells. Briefly: Cell proliferation inhibition, CHO-WT cells. The following applies: 72 hours. In kind it is cell-based, Chinese Hamster. As for the experimental part:
(§1) Cell proliferation inhibition assay CHO-WT and CHO-FRβ cells were seeded in individual wells of a 24-well tissue culture plate at a density of 1×10^4/cm^2. […] After 72 hours incubation, cells were harvested by trypsinization and counted for cell viability as described before. See Mol. Pharmacol. 1999; 55(4): 761-769 (Jansen et al.).

The target of test [1] is T1, RFC (reduced folate carrier) (Homo sapiens, UniProt P41440).
T1 sequence (P41440 1-591): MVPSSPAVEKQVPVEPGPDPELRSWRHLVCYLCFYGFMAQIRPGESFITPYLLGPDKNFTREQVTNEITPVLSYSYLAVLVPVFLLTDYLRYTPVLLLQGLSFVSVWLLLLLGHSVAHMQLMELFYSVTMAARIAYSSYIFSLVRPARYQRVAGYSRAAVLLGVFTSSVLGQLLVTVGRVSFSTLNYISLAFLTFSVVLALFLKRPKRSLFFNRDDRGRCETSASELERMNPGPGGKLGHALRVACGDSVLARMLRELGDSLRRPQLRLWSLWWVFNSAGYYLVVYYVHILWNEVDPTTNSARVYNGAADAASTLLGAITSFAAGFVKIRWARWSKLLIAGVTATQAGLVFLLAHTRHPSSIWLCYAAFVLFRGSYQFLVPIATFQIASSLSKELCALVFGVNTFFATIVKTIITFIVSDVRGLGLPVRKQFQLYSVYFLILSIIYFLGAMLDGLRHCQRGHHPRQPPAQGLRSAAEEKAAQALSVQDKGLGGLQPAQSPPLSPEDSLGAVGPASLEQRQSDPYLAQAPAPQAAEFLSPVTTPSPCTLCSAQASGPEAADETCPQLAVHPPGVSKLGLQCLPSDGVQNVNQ
The following applies: cited from earlier work.

A further test relates to CHO/FR-β cells. The test is described as follows: Cell proliferation inhibition, CHO-FR-β cells. In kind it is cell-based, Chinese Hamster. Conditions: for Effect of addition of folic acid on growth inhibitory activity: 1 μM folic acid to block FR. On the procedure: as §1
In test [2] the test system is human monocytic-macrophage THP1 cells. Briefly: Cell proliferation inhibition, THP1 cells. The class given is cell-based. The following applies: read-out: Growth inhibitory effects, IC50. On the procedure:
In other experiments human monocytic-macrophage THP1 cells were tested for antiproliferative effects of folate antagonists. To this end, 1 ml of cell suspension containing 1.25×10^5 cells were plated in individual wells of a 24-well tissue culture plate and incubated with 8 concentrations (with 2.5-fold increments) of folate antagonist drugs. After 72 hours drug exposure cell counts were performed with a haemocytometer and viability was checked by trypan blue exclusion.

Another test addresses T2, FR-β (Homo sapiens, UniProt P14207).
T2 construct: expressed in transfected cells; host or cells: Chinese Hamster Ovary cells (CHO-β / CHO-FR-β)
Briefly: Intact cell competitive binding of [3H]-folic acid to FR-β (CHO-β cells). The following applies: for FR-β binding affinity relative to folic acid: [3H]-folic acid displacement, 10 min at 4° C. On the procedure: (§2) An intact cell binding assay for competitive binding of [^3H]-folic acid and novel anti-folate drugs to FR-β and FR-α was performed essentially as described previously. See Mol. Pharmacol. 1995; 48: […] and Cancer Res. 1995; 55(17): 3795-3802 (both Westerhof et al.). Briefly, CHO-β cells (FR-β transfected Chinese Hamster Ovary cells) and KB cells (FR-α expressing cells) were detached by incubation in PBS+1 mM EDTA. Detached cells were suspended in ice-cold HEPES-buffered saline (140 mM NaCl, 20 mM HEPES, 6 mM KCl, 2 mM MgCl2, 6 mM D-glucose, pH 7.4 with NaOH) to a cell concentration of 3×10^6 and 1×10^6 cells/ml, respectively. One ml of cell suspension was added to a series of Eppendorf tubes containing […] [^3H]-folic acid (specific radioactivity: 2,000 dpm/μmol) in the absence or presence of increasing concentrations of natural folate or folate antagonists. Following 10 minutes at 4° C., cells were centrifuged in an Eppendorf centrifuge (30 s, 10,000 rpm), the supernatant was aspirated and cell pellets were resuspended in 200 μl water and analysed for radioactivity (Optima Gold scintillation fluid, United Technologies, Packard, Brussels, Belgium). Non-specific binding of [^3H] […] For comparison, data for affinities of the RFC for natural folates and folate antagonists were presented from previous studies. See. Mol Pharmacol 1995; 48: 459-471 Westerhof et al.) and Cancer Res. 2005; 65(24): 11721-11728 (Gibbs et al.).

The target in a further test is T3, FR-α (Homo sapiens, UniProt P15328).
T3 construct: KB cells (FR-α expressing cells); host or cells: KB cells
T3 sequence (P15328 25-234): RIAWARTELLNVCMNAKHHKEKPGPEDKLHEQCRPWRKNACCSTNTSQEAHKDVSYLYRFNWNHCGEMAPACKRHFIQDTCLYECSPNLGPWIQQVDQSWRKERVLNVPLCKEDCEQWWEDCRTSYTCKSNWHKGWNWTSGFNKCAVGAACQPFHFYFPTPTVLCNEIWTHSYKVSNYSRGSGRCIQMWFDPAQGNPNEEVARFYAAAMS
The test is described as follows: Intact cell competitive binding of [3H]-folic acid to FR-α (KB cells). The following applies: FRα (KB) versus FR-β (CHO-β). On the procedure:
as §2, with “Mol Pharmacol 1995; 48: 459-471 Westerhof et al.) and Cancer Res. 2005; 65(24): 11721-11728 (Gibbs et al.).” left out

Test [3] relates to macrophages (3A5) in synovial sublining layer. The test is described as follows: Synovial tissue immunohistochemistry of RA patients treated with MTX. In kind it is in vivo, human. The following applies: after 4 months of MTX, 219 before treatment, p=0.14. As for the experimental part: In this study we analysed synovial tissue biopsies derived from the knee joints of 15 RA-patients with active disease before treatment and after 4 months of treatment with MTX (starting dose of MTX: 7.5 mg/week; increasing stepwise to 15 mg/week over 12 weeks). Active disease was defined as ≧6 swollen or tender joints and levels of moderate or worse on the physician's and patient's assessments of disease activity (Disease Activity Score-28; DAS-28). All patients had at least 1 clinically involved knee joint. Low dose prednisone (<10 mg/day) and concomitant stable doses of nonsteroidal anti-inflammatory drug (NSAID) treatment were allowed. None of the patients ever used MTX before enrolling the study. In patients taking other DMARDs, the treatment was terminated following a washout phase of 28 days. […]
Immunohistochemical staining of cryostat sections (4 μm) of synovial tissue biopsies from RA patients and controls was performed using a 3-step immunoperoxidase method as described previously. […] Stained sections were analysed for FR-β, 3A5 and CD3 expression by digital image analysis, as described previously. […] Positive cells were evaluated by analysing 18 consecutive hpfs, scoring numbers of positive cells in the intimal lining layer and the synovial sublining per mm^2.

T2 sequence (P14207 17-230): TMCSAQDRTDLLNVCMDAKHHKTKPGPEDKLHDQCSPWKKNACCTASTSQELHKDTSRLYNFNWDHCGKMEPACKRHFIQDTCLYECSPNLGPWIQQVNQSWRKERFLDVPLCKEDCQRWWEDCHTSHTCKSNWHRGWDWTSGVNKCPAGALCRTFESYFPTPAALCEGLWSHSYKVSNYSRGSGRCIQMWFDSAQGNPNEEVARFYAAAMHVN

As to `C#CCN(c1ccc(C(=O)N[C@@H](CCC(=O)N[C@H](CCC(=O)O)C(=O)O)C(=O)O)cc1)C1CCc2cc3nc(CO)[nH]c(=O)c3cc21` (mixture of isomers) [BGC 945], the “Extracellular concentration inducing growth inhibition of CHO/WT cells” value with CHO/WT cells is over 1000 nM. For the same compound, the “Affinity for RFC” value in test [1] is reported as “poor affinity for RFC”. In the test on CHO/FR-β cells, the “Effect of addition of folic acid on growth inhibitory activity” value is “completely abrogated”. The “Concentration inducing growth inhibition of CHO/FR-β cells” value in the test on CHO/FR-β cells (72 hours) was in the range of 10 to 50 nM. In the test with CHO/FR-β cells (CHO/WT versus CHO/FR-β), the “Differential in activity between control CHO cells and FR-β transfected cells” value is given as “largest differential in activity”. Besides, the IC50 in test [2] (Homo sapiens, THP-1, 72 h) was found to be 3630 ± 350 nM. At FR-β, the “FR-β binding affinity” value is “relatively high binding affinity” and the “FR-β binding affinity relative to folic acid” value is given as 89 % of folic acid.
Consider `C#CCN(c1ccc(C(=O)N[C@@H](CCC(=O)N[C@H](CCC(=O)O)C(=O)O)C(=O)O)cc1)[C@H]1CCc2cc3nc(CO)[nH]c(=O)c3cc21` [(6S)-BGC 945], for which the “FR-β binding affinity relative to folic acid” value on FR-β was 46 % of folic acid.
For `Nc1nc2c(c(=O)[nH]1)SC(CCc1ccc(C(=O)N[C@@H](CCC(=O)O)C(=O)O)s1)CN2` (stereo partly shown) [AG2034], the “Growth inhibition of CHO/WT cells” value in the test on CHO/WT cells is reported as “displayed a growth inhibitory potential”. Besides, in the test with CHO/FR-β cells (folic acid 1 μM or leucovorin 20 nM, CHO/WT and CHO/FR-β), the “Abrogation of growth inhibitory effects by FR-β blocking (folic acid) and RFC blocking (LV)” value is “only partial”. In addition, in test [2] (Homo sapiens, THP-1, 72 h), the IC50 is 3.2 ± 0.2 nM. Also, the “FRα binding affinity, fold higher than FR-β” value at FR-α is listed as 2.5 fold. On FR-β, the “FR-β binding affinity” value is recorded as “moderate to high binding affinities” and the “FR-β binding affinity relative to folic acid” value is recorded as 54 % of folic acid.
For `C#CCN(Cc1cc2c(=O)[nH]c(C)nc2cc1C)c1ccc(C(=O)N[C@@H](CCc2nn[nH]n2)C(=O)O)c(F)c1` [BGC 9331], in test [2] (Homo sapiens, THP-1, 72 h), the IC50 is 8.7 ± 0.8 nM.
`C#CN(Cc1cc2c(=O)[nH]c(N)nc2cc1C)c1ccc(C(=O)N[C@@H](CCC(=O)CN[C@H](CCCC(=O)O)C(=O)O)C(=O)O)c(F)c1` [CB300635]: the “Affinity for RFC” value in test [1] is “poor affinity for RFC”. Besides, the “Effect of addition of folic acid on growth inhibitory activity” value with CHO/FR-β cells is “abrogated activity”. Also, the “Growth inhibition of CHO/FR-β cells” value in the test with CHO/FR-β cells (72 hours) was “not markedly potent”. Further, the IC50 in test [2] (Homo sapiens, THP-1, 72 h) stood at 4850 ± 285 nM. Moreover, at FR-β, the “FR-β binding affinity” value is “relatively high binding affinity” and the “FR-β binding affinity relative to folic acid” value was 161 % of folic acid.
As to `Nc1nc2c(c(=O)[nH]1)CC(CCc1ccc(C(=O)N[C@@H](CCC(=O)O)C(=O)O)cc1)CN2` (stereo partly shown) [DDATHF, 5,10-dideazatetrahydrofolate], the concentration for half-maximal inhibition (IC50) in test [2] (Homo sapiens, THP-1, 72 h) was 9.8 ± 0.8 nM. Moreover, on FR-α, the “FRα binding affinity, fold higher than FR-β” value was 2.5 fold. Besides, at FR-β, the “FR-β binding affinity” value was “moderate to high binding affinities” and the “FR-β binding affinity relative to folic acid” value is reported as 27 % of folic acid.
As for `Cc1nc2ccc3ccc(CNc4ccc5c(c4)CN([C@@H](CCC(=O)O)C(=O)O)C5=O)cc3c2c(=O)[nH]1` [GW1843], the IC50 in test [2] (Homo sapiens, THP-1, 72 h) is 1.6 ± 0.1 nM. Besides, at FR-β, the “FR-β binding affinity” value was “relatively high binding affinity”.
With `CN(Cc1cnc2nc(N)nc(N)c2n1)c1ccc(C(=O)N[C@@H](CCC(=O)O)C(=O)O)cc1` [MTX, methotrexate], in test [2] (Homo sapiens, THP-1, 72 h), the IC50 is 7.1 ± 0.5 nM. Besides, the “Median numbers of macrophages after MTX treatment” value in test [3] is 119 positive cell counts in the synovial sublining layer/mm^2. Moreover, the “FR-β binding affinity, fold lower than for folic acid” value at FR-β is reported as “approximately 50 fold”.
Turning to `Nc1nc(N)c2nc(CNc3ccc(C(=O)N[C@@H](CCCNC(=O)c4ccccc4C(=O)O)C(=O)O)cc3)cnc2n1` [PT523], in test [2] (Homo sapiens, THP-1, 72 h), the IC50 was 2.2 ± 0.3 nM. Also, the “FR-β binding affinity relative to folic acid” value on FR-β was 0.3 % of folic acid.
In the case of `Cc1c(CNc2ccc(C(=O)N[C@@H](CCCNC(=O)c3ccccc3C(=O)O)C(=O)O)cc2)cnc2nc(N)nc(N)c12` [PT644], the IC50 in test [2] (Homo sapiens, THP-1, 72 h) turned out to be 1 ± 0.4 nM. Besides, at FR-β, the “FR-β binding affinity” value was “affinity comparable to MTX”.
On to `Cc1nc2ccc(CN(C)c3ccc(C(=O)N[C@@H](CCC(=O)O)C(=O)O)s3)cc2c(=O)[nH]1` [Raltitrexed], for which, in test [2] (Homo sapiens, THP-1, 72 h), the IC50 came out at 2.4 ± 0.5 nM.
For Pemetrexed, in test [2] (RPMI-1640 with 2.2 μM folic acid, 72 hours drug exposure, mean ± S.D. of 3 experiments), the IC50 came to 10.7 ± 2.2 nM.
